Test results from ChEMBL document CHEMBL3867445, “Halogenated Sesquiterpenoids from the Red Alga Laurencia tristicha Collected in Taiwan” (J Nat Prod, 2016).

How the values were obtained:
[1] = Cytotoxicity against human A549 cells by Alamar Blue assay
[2] = Cytotoxicity against human DLD1 cells by Alamar Blue assay; format: functional, cell-based; conditions: DLD-1
[3] = Cytotoxicity against human LNCAP cells by Alamar Blue assay; format: functional, cell-based
[4] = Antiinflammatory activity in human neutrophils assessed as inhibition of fMLP/CB-induced superoxide anion generation by measuring superoxide dismutase-inhibitable reduction of ferricytochrome c at 10 uM preincubated for 5 mins followed by fMLP/CB-induction measured after 10 mins; format: functional; conditions: Neutrophil
[5] = Antiinflammatory activity in human neutrophils assessed as inhibition of fMLP/CB-induced superoxide anion generation by measuring superoxide dismutase-inhibitable reduction of ferricytochrome c at 20 uM preincubated for 5 mins followed by fMLP/CB-induction measured after 10 mins; format: functional; conditions: Neutrophil
[6] = Antiinflammatory activity in human neutrophils assessed as inhibition of fMLP/CB-induced elastase release at 10 uM using MeO-Suc-Ala-Ala-Pro-Val-p-nitroanilide as elastase substrate preincubated for 5 mins followed by fMLP/CB-induction; format: functional; conditions: Neutrophil
[7] = Antiinflammatory activity in human neutrophils assessed as inhibition of fMLP/CB-induced elastase release at 20 uM using MeO-Suc-Ala-Ala-Pro-Val-p-nitroanilide as elastase substrate preincubated for 5 mins followed by fMLP/CB-induction; format: functional; conditions: Neutrophil
[8] = tested on: Serratia marcescens; assay: Antibacterial activity against Serratia marcescens ATCC 25419 assessed as zone of inhibition at 100 ug/disk measured after 24 hrs by agar disk-diffusion method; format: functional; conditions: ATCC 25419, 24 h, read-out: IZ
[9] = tested on: Yersinia enterocolitica; assay: Antibacterial activity against Yersinia enterocolitica ATCC 23715 assessed as zone of inhibition at 100 ug/disk measured after 24 hrs by agar disk-diffusion method; format: functional; conditions: ATCC 23715, 24 h, read-out: IZ
[10] = tested on: Klebsiella aerogenes; assay: Antibacterial activity against Enterobacter aerogenes ATCC 13048 assessed as zone of inhibition at 100 ug/disk measured after 24 hrs by agar disk-diffusion method; format: functional; conditions: ATCC 13048, 24 h, read-out: IZ

Row | SMILES | IC50 [1] [µM] | IC50 [2] [µM] | IC50 [3] [µM] | inhibition at 10 µM [4] [%] | inhibition at 20 µM [5] [%] | inhibition at 10 µM [6] [%] | inhibition at 20 µM [7] [%] | zone of inhibition at 100 µg/disc [8] [mm] | zone of inhibition at 100 µg/disc [9] [mm] | zone of inhibition at 100 µg/disc [10] [mm]
1 | C=C1C[C@@H](O)[C@@H](Br)C(C)(C)[C@@]12C=C/C(=C/Br)CC2 | ≥ 10 | ≥ 10 | ≥ 10 | 18 | 10 | 34 | 69 |  |  | 
2 | C=C1C[C@@H](O)[C@@H](Br)C(C)(C)[C@@]12C=C[C@](O)(CO)CC2 | ≥ 10 | ≥ 10 | ≥ 10 | 7 | 14 | 9 | 29 |  |  | 
3 | C=C1C[C@@H](O)[C@@H](Br)C(C)(C)[C@]12CCC(=O)[C@H]1O[C@H]12 | ≥ 10 | ≥ 10 | ≥ 10 | 6 | 6 | 3 | 14 |  |  | 
4 | CC1=CC(=O)CC(C)(C)[C@@]12C=C/C(=C\Br)CC2 | ≥ 10 | ≥ 10 | ≥ 10 | 6 | 12 | 3 | 14 | 8 |  | 
5 | C=C1C[C@@H](O)[C@@H](Br)C(C)(C)[C@@]12C=C[C@](O)(C(Br)Br)CC2 | ≥ 10 | ≥ 10 | ≥ 10 | 19 | 32 | 9 | 33 | 2 | 4 | 
6 | C=C1CC[C@]2(C[C@@H]1O)C(=C)C[C@H](O)[C@@H](Br)C2(C)C | ≥ 10 | ≥ 10 | ≥ 10 | 10 | 14 | 5 | 24 |  |  | 
7 | Cc1ccc([C@]2(C)C[C@H](O)[C@@H](Br)C2(C)C)cc1 | ≥ 10 | ≥ 10 | ≥ 10 | 17 | 26 | 7 | 28 |  |  | 
8 | CC1=CC(=O)CC(C)(C)[C@@]12C=C/C(=C/Br)CC2 | ≥ 10 | ≥ 10 | ≥ 10 | 7 | 10 | 5 | 30 |  |  | 
9 | CC1=C[C@H](O)[C@@H](Br)C(C)(C)[C@@]12C=C[C@](C)(O)CC2 | ≥ 10 | ≥ 10 | ≥ 10 | 13 | 12 | 1 | 12 |  |  | 
10 | C=C1C[C@@H](O)[C@@H](Br)C(C)(C)[C@]12CC[C@](C)(Br)[C@@H](Cl)C2 | ≥ 10 | ≥ 10 | ≥ 10 | 25 | 48 | 44 | 60 | 2 | 2 | 2
11 | CO[C@@]1(C)CC[C@]2(C[C@H]1Br)C(C)=C[C@H](O)CC2(C)C | ≥ 10 | ≥ 10 | ≥ 10 | 12 | 10 | 5 | 24 |  |  | 
12 | CC1=C[C@H](O)CC(C)(C)[C@]12CC[C@](C)(Br)[C@H](Cl)C2 | ≥ 10 | ≥ 10 | ≥ 10 | 12 | 14 | 12 | 19 |  |  | 
13 | CC1(C)[C@H](Br)[C@H](O)C[C@@]2(CO2)[C@@]12CCC(=O)[C@@H]1O[C@@H]12 | ≥ 10 | ≥ 10 | ≥ 10 | 9 | 8 | 2 | 18 |  |  | 
14 | C=C1C[C@@H](O)[C@@H](Br)C(C)(C)[C@@]12C=CC(=O)CC2 | ≥ 10 | ≥ 10 | ≥ 10 | 7 | 13 | 9 | 14 |  |  | 3
15 | C=C1C[C@@H](O)[C@@H](Br)C(C)(C)[C@@]12C=C/C(=C\Br)CC2 | ≥ 10 | ≥ 10 | ≥ 10 | 24 | 10 | 8 | 12 | 4 | 3 | 
16 | CC1=CC(=O)CC(C)(C)[C@@]12C=CC(=O)CC2 | ≥ 10 | ≥ 10 | ≥ 10 | 4 | 16 | 18 | 32 |  |  | 
17 | CC1(C)S[C@@H]2[C@H](NC(=O)[C@H](N)c3ccccc3)C(=O)N2[C@H]1C(=O)O [AMPICILLIN] |  |  |  |  |  |  |  | 5 | 8 | 11
18 | COc1cccc2c1C(=O)c1c(O)c3c(c(O)c1C2=O)C[C@@](O)(C(=O)CO)C[C@@H]3O[C@H]1C[C@H](N)[C@H](O)[C@H](C)O1 [DOXORUBICIN] |  | 2.6 | 1.4 |  |  |  |  |  |  | 
19 | CC[C@H](Nc1ncnc2[nH]cnc12)c1nc2cccc(F)c2c(=O)n1-c1ccccc1 [IDELALISIB] |  |  |  | 103 |  | 100 |  |  |  | 
20 | C=C1C[C@H](O)[C@@H](Br)C(C)(C)[C@@]12C=C[C@](C)(O)CC2 [ISORIGIDOL] | ≥ 10 | ≥ 10 | ≥ 10 | 11 | 23 | 9 | 12 |  |  | 
21 | C=C1C[C@@H](O)[C@@H](Br)C(C)(C)[C@@]12C=C[C@@](O)(C(Br)Br)CC2 [MAILIOHYDRIN] | ≥ 10 | ≥ 10 | ≥ 10 | 13 | 16 | 16 | 22 | 2 | 2 | 1
